Data taken from US12583858B2 (Genentech, Inc., priority 2015, dated 2026).

Biological target: T1, TDO2 (Homo sapiens, UniProt P48775)
T1 construct: decreased levels of NFK in SW48 cells (high TDO expressing cells)
Assay: TDO2 cell assay (NFK GreenScreen, SW48 cells)
Type: cell-based
Conditions: SW48 cells (high TDO expressing), 200 uM tryptophan, 24 hours; Table 3; read-out: TDO2 Cell Fluor EC50

T1 sequence (P48775 whole entry): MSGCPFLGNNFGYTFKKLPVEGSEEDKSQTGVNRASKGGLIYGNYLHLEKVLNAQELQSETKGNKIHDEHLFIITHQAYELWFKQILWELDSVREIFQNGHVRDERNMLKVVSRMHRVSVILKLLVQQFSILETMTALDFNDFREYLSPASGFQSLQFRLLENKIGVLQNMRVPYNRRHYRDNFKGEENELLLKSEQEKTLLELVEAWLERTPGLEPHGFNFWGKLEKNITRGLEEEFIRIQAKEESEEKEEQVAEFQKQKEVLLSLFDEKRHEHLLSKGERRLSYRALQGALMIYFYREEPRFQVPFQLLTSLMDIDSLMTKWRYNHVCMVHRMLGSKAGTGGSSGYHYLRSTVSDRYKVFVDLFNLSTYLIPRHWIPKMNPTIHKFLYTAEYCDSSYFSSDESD

| Compound | EC50 [nM] |
| --- | --- |
| O[C@H]1c2cnccc2CC[C@@H]1[C@@H]1c2ccccc2-c2cncn21 (single isomer, unassigned) [Example 04f] | 2300 |
| OC1CCCC1C1c2ccc(F)cc2-c2cncn21 (single isomer, unassigned) [Example 20c] | 3600 |
| CC(C)(C)OC(=O)N1CC[C@@H](O)[C@H]([C@H]2c3ccccc3-c3cncn32)C1 [Example 11a, (3S,4R)-tert-butyl 4-hydroxy-3-((S)-5H-imidazo[5,1-a]isoindol-5-yl)piperidine-1-carboxylate] | 15000 |
| CC(=O)N1CCC(C2c3ccccc3-c3cncn32)C(O)C1 (single isomer, unassigned) [Example 09c, 1-(3-hydroxy-4-(5H-imidazo[5,1-a]isoindol-5-yl)piperidin-1-yl)ethan-1-one] | > 25000 |
| O=c1cccc2n1CCC(C1c3ccccc3-c3cncn31)C2O (single isomer, unassigned) [Example 29e, 1-hydroxy-2-(5H-imidazo[5,1-a]isoindol-5-yl)-3,4-dihydro-1H-quinolizin-6(2H)-one] | 440 |
| O[C@H]1c2cncn2CC[C@@H]1[C@@H]1c2ccccc2-c2cncn21 [Example 07g, (7R,8R)-7-((R)-5H-imidazo[5,1-a]isoindol-5-yl)-5,6,7,8-tetrahydroimidazo[1,5-a]pyridin-8-ol] | > 25000 |
| OC1(C2c3ccccc3-c3cncn32)CCC1 (single isomer, unassigned) [Example 47a] | 350 |
| N#CCN1CCC(O)C(C2c3ccccc3-c3cncn32)C1 (single isomer, unassigned) [Example 14b] | > 25000 |
| OC1CCCCC1C1c2ccc(F)cc2-c2cncn21 (single isomer, unassigned) [Example 25c] | 20000 |
| O[C@H]1CCC[C@H]1[C@H]1c2ccccc2-c2cncn21 [Example 02b, (1S,2S)-2-((S)-5H-imidazo[5,1-a]isoindol-5-yl)cyclopentan-1-ol] | 120 |

Second part, the molecule after the results:

| EC50 [nM] | Compound |
| --- | --- |
| 11000 | O[C@@H]1[C@@H]([C@H]2c3ccccc3-c3cncn32)CC12CCOCC2 [Example 57a, (1R,2R)-2-((S)-5H-imidazo[5,1-a]isoindol-5-yl)-7-oxaspiro[3.5]nonan-1-ol] |
| 250 | Cc1cnn2c1C(O)C(C1c3ccccc3-c3cncn31)CC2 (single isomer, unassigned) [Example 159c] |
| 480 | NC(=O)c1ccc2c(c1)CCC(C1c3ccccc3-c3cncn31)C2O (single isomer, unassigned) [Example 60a] |
| 13000 | OC(C1c2ccccc2-c2cncn21)C1(F)CC1 (single isomer, unassigned) [Example 154d] |
| 73 | CN(C)C(=O)c1ccc2c(c1)CCC(C1c3ccccc3-c3cncn31)C2O (single isomer, unassigned) [Example 98a] |
| 7400 | OC1c2nncn2CCC1C1c2ccccc2-c2cncn21 (single isomer, unassigned) [Example 146-1b] |
| > 25000 | CC(O)(c1ncc[nH]1)C1c2ccccc2-c2cncn21 (single isomer, unassigned) [Example 143d] |
| 150 | N#Cc1cc2n(n1)CCC(C1c3ccccc3-c3cncn31)C2O (single isomer, unassigned) [Example 174b] |
| 490 | OC1c2cnccc2CC1C1c2ccccc2-c2cncn21 (single isomer, unassigned) [Example 71bb] |
| 130 | CC(C)C(O)C1c2ccc(F)cc2-c2cncn21 (single isomer, unassigned) [Example 135d] |
| 8400 | O[C@@H]1c2ccccc2CC[C@H]1[C@@H]1c2ccccc2-c2cncn21 (single isomer, unassigned) [Example 102h] |
| 1400 | NC(=O)c1nc2c(s1)CCC(C1c3ccccc3-c3cncn31)C2O (single isomer, unassigned) [Example 149e] |
| 520 | OC1CCOCC1C1c2cc(F)ccc2-c2cncn21 (single isomer, unassigned) [Example 75d] |
| > 25000 | NC(=O)c1cc2n(n1)CCC(C1c3ccccc3-c3cncn31)C2O (single isomer, unassigned) [Example 172a] |
